Results taken from US8754098B2 (Salix Pharmaceuticals, Ltd., priority 2008, dated 2014).
Blank lines part the entries; values can stand above or below the compound they belong to.

Tests used:
Assay type in all cases: physicochemical
[1] = Stressing under various relative humidities (solid form by XRPD); settings: for RH stability: solid form change after exposing to 58% RH / RH stability: solid form change after exposing to 75% RH: am = amorphous
Protocol: Stressing Under Various Relative Humidities (RH)
The jar was sealed and stored at either ambient temperature or in an oven at elevated temperature.
X-ray powder diffraction (XRPD) analyses were performed using a Shimadzu XRD-6000 X-ray powder diffractometer using Cu Kα radiation. The instrument is equipped with a long fine focus X-ray tube. The tube voltage and amperage were set to 40 kV and 40 mA, respectively. The divergence and scattering slits were set at 1° and the receiving slit was set at 0.15 mm. Diffracted radiation was detected by a NaI scintillation detector. A θ-2θ continuous scan at 3°/min (0.4 sec/0.02° step) from 2.5 to 40°2θ was used. A silicon standard was analyzed to check the instrument alignment. Data were collected and analyzed using XRD-6100/7000 v. 5.0. Samples were prepared for analysis by placing them in a sample holder.
X-ray powder diffraction (XRPD) analyses were performed using an Inel XRG-3000 diffractometer equipped with a CPS (Curved Position Sensitive) detector with a 2θ range of 120°. Real time data were collected using Cu—Kα radiation starting at approximately 4° 2θ at a resolution of 0.03° 2θ. The tube voltage and amperage were set to 40 kV and 30 mA, respectively. The monochromator slit was set at 5 mm by 160 μm. […] Samples were prepared for analysis by packing them into thin-walled glass capillaries. Each capillary was mounted onto a goniometer head that is motorized to permit spinning of the capillary during data acquisition. The samples were analyzed for 300 sec. Instrument calibration was performed using a silicon reference standard.

[2] = Rifaximin drying experiments (solid form by XRPD); settings: for XRPD Form: vac oven 50° C., 1 day; for solid form after vacuum dried: vacuum dried (Table 1)
Text: Dried materials obtained by vacuum drying or heating the hydrates were labeled “dry”. […] After a portion of the rifaximin was removed for XRPD analysis the remainder of the sample was dried under vacuum at ambient temperature for approximately one day. Solids were stored in a dessicator prior to analysis by XRPD. (FIG. 9)

[3] = Automated moisture sorption/desorption (MB / DVS); settings: for Post-MB XRPD / Final Form post moisture sorption/desorption: sorption from 5% RH to 95% RH, desorption from 95% RH to 5% RH; for wt loss upon equilibration at 5% RH: moisture balance
Protocol: Automated Moisture Sorption/Desorption Moisture sorption/desorption data were collected on a VTI SGA-100 Vapor Sorption Analyzer. Sorption and desorption data were collected over a range of 5% to 95% relative humidity (RH) at 10% RH intervals under a nitrogen purge. Samples were not dried prior to analysis. Equilibrium criteria used for analysis were less than 0.0100% weight change in 5 minutes, with a maximum equilibration time of 3 hours if the weight criterion was not met. Data were not corrected for the initial moisture content of the samples. NaCl and PVP were used as calibration standards.

[4] = Milling experiments for amorphous rifaximin; settings: scraped sides
Protocol: (§1) Vapor stressing experiments were done on amorphous material from two preparations: lyophilization from p-dioxane:water 1:1 and crash precipitation from ethyl acetate with heptane. […] The majority of the stressed samples appeared as clear red solutions after 6 days. Those solutions were placed in vials of antisolvent for vapor diffusion. Dry and wet milling experiments were conducted on amorphous materials from the two preparations mentioned above. Amorphous materials were recovered from the dry milling experiments.
A solid sample of rifaximin was charged to a milling container with a milling ball. Samples were milled for 5 or 15 minute intervals (2×5 minutes, 2×15 minutes, and 3×15 minutes) at 30 Hz using a Retsch MM200 mixer mill. Solids were scraped from the sides of the vial after each interval.

[5] = Stressing of amorphous rifaximin (vapor stress, vapor diffusion); settings: for form from vapor diffusion experiment: water as an antisolvent
Protocol: as §1

[6] = first amorphous sample of Table 3 (footnote c, 3436-54)
[7] = second amorphous sample of Table 3 (footnote d, 3436-55)

Compound: CO[C@H]1/C=C/O[C@@]2(C)Oc3c(C)c(O)c4c(O)c(c5c(nc6cc(C)ccn65)c4c3C2=O)NC(=O)/C(C)=C\C=C\[C@H](C)[C@H](O)[C@@H](C)[C@@H](O)[C@@H](C)[C@H](OC(C)=O)[C@@H]1C [Form α-dry, Rifaximin]
Final Form ([1]; 33% RH, 2 days): α
Final Form ([1]; 33% RH, 7 days): α
Final Form ([1]; 43% RH, 4 days): α + β
Final Form ([1]; 43% RH, 11 days): β + (α)
RH stability: solid form change after exposing to 58% RH ([1]; listed as α dry): β
RH stability: solid form change after exposing to 75% RH ([1]; listed as α dry): β
RH stability: solid form change after exposing to 94% RH ([1]; 94% RH): β
XRPD Form [2]: α dry
XRPD Form ([2]; vac oven 60° C.): α dry
solid form after vacuum dried ([2]; listed as α dry): α dry
Post-MB XRPD / Final Form post moisture sorption/desorption ([3]; listed as α dry): α dry

Compound: CO[C@H]1/C=C/O[C@@]2(C)Oc3c(C)c(O)c4c(O)c(c5c(nc6cc(C)ccn65)c4c3C2=O)NC(=O)/C(C)=C\C=C\[C@H](C)[C@H](O)[C@@H](C)[C@@H](O)[C@@H](C)[C@H](OC(C)=O)[C@@H]1C [Form β, Rifaximin, reference compound]
XRPD Form ([1]; P2O5, 4 days): α dry

Compound: CO[C@H]1/C=C/O[C@@]2(C)Oc3c(C)c(O)c4c(O)c(c5c(nc6cc(C)ccn65)c4c3C2=O)NC(=O)/C(C)=C\C=C\[C@H](C)[C@H](O)[C@@H](C)[C@@H](O)[C@@H](C)[C@H](OC(C)=O)[C@@H]1C [Form β-1, Rifaximin]
RH stability: solid form change after exposing to 58% RH ([1]; listed as β-1): β + pk
RH stability: solid form change after exposing to 75% RH ([1]; listed as β-1): β

Compound: CO[C@H]1/C=C/O[C@@]2(C)Oc3c(C)c(O)c4c(O)c(c5c(nc6cc(C)ccn65)c4c3C2=O)NC(=O)/C(C)=C\C=C\[C@H](C)[C@H](O)[C@@H](C)[C@@H](O)[C@@H](C)[C@H](OC(C)=O)[C@@H]1C [Form β-2, Rifaximin]
RH stability: solid form change ([1]; studied at 20% RH (footnote d)): α^d
solid form after vacuum dried ([2]; listed as β-2): α dry

Compound: CO[C@H]1/C=C/O[C@@]2(C)Oc3c(C)c(O)c4c(O)c(c5c(nc6cc(C)ccn65)c4c3C2=O)NC(=O)/C(C)=C\C=C\[C@H](C)[C@H](O)[C@@H](C)[C@@H](O)[C@@H](C)[C@H](OC(C)=O)[C@@H]1C [Form γ, Rifaximin, reference compound]
hygroscopicity [3]: hygroscopic
wt loss upon equilibration at 5% RH [3]: 2.4%

Next, values leading:

XRPD Form / Final Form after stability chamber ([1]; 75% RH at 40° C., 1 day): ζ + γ^e
solid form after vacuum dried [2]: η or and γ + η
Compound: CO[C@H]1/C=C/O[C@@]2(C)Oc3c(C)c(O)c4c(O)c(c5c(nc6cc(C)ccn65)c4c3C2=O)NC(=O)/C(C)=C\C=C\[C@H](C)[C@H](O)[C@@H](C)[C@@H](O)[C@@H](C)[C@H](OC(C)=O)[C@@H]1C [Form ζ, Rifaximin]

solid form after vacuum dried ([2]; listed as η): η
Compound: CO[C@H]1/C=C/O[C@@]2(C)Oc3c(C)c(O)c4c(O)c(c5c(nc6cc(C)ccn65)c4c3C2=O)NC(=O)/C(C)=C\C=C\[C@H](C)[C@H](O)[C@@H](C)[C@@H](O)[C@@H](C)[C@H](OC(C)=O)[C@@H]1C [Form η, Rifaximin]

form by XRPD analysis after storage ([1]; 58% RH for 8 days): remained amorphous
RH stability: solid form change after exposing to 58% RH [1]: am
RH stability: solid form change after exposing to 75% RH [1]: am
XRPD Result after milling ([4]; sample source CP from EtOAc with heptane, 10 min. at 30 Hz): amor-
XRPD Result after milling ([4]; sample source lyophilization from p-dioxane: water 1:1, 10 min. at 30 Hz): amor-
XRPD Result ([5]; DCM, VD w/ IPE, 11 days): amorphous
XRPD Result ([5]; MEK, VD w/ IPE, 11 days): amorphous
form from vapor diffusion experiment ([5]; methanol): Form β
form from vapor diffusion experiment ([5]; tetrahydrofuran): Form β
XRPD Result ([5]; toluene, VS, RT, 6 days, Amorphous Materials): amorphous
XRPD Result ([5]; toluene, VS, RT, 6 days, listed as amorphous material): no peaks
XRPD Result ([5]; water, VS, RT, 15 days): amorphous
DVS weight gain from 5-95% RH [3, 6]: 8.364% eight gain from 5-95%
DVS weight loss from 95-5% RH [3, 6]: 10.989% weight loss from 95-
wt loss upon equilibration at 5% RH ([3]; listed as Rifaximin Amorphous): 0.7% wt loss upon equilibration at 5% RH
DVS weight gain from 5-95% RH [3, 7]: 7.843% weight gain from 5-
DVS weight loss from 95-5% RH [3, 7]: 9.172% weight loss from 95-5%
Post-MB XRPD / Final Form post moisture sorption/desorption ([3]; listed as Amorphous): amorphous
Post-MB XRPD / Final Form post moisture sorption/desorption ([3]; listed as Amorphous rifaximin): amorphous
Post-MB XRPD / Final Form post moisture sorption/desorption ([3]; listed as Rifaximin Amorphous): amorphous
Compound: CO[C@H]1/C=C/O[C@@]2(C)Oc3c(C)c(O)c4c(O)c(c5c(nc6cc(C)ccn65)c4c3C2=O)NC(=O)/C(C)=C\C=C\[C@H](C)[C@H](O)[C@@H](C)[C@@H](O)[C@@H](C)[C@H](OC(C)=O)[C@@H]1C [amorphous, Rifaximin]

hygroscopicity [3]: moderately hygroscopic
Compound: CO[C@H]1/C=C/O[C@@]2(C)Oc3c(C)c(O)c4c(O)c(c5c(nc6cc(C)ccn65)c4c3C2=O)NC(=O)/C(C)=C\C=C\[C@H](C)[C@H](O)[C@@H](C)[C@@H](O)[C@@H](C)[C@H](OC(C)=O)[C@@H]1C [crash amorphous rifaximin, Rifaximin]

hygroscopicity [3]: moderately hygroscopic
Compound: CO[C@H]1/C=C/O[C@@]2(C)Oc3c(C)c(O)c4c(O)c(c5c(nc6cc(C)ccn65)c4c3C2=O)NC(=O)/C(C)=C\C=C\[C@H](C)[C@H](O)[C@@H](C)[C@@H](O)[C@@H](C)[C@H](OC(C)=O)[C@@H]1C [lyophilized amorphous rifaximin, Rifaximin]
